Measured values as given in the kinase profiling compilation of Christmann-Franck et al. (2016).
“And” between values parts separate entries of the source, which are not always exact repeats. Identical values can stand only once.

Key:
Test in all cases: radiometric filter-binding kinase assay, Kinase HotSpot
Details in all cases: compound 0.5 µM; ATP 10 µM
[1] = target: TBK1 (human) (UniProt Q9UHD2)
[2] = target: NEK11 (human) (UniProt Q8NG66)
[3] = target: FES (human) (UniProt P07332)
[4] = target: BRSK1 (human) (UniProt Q8TDC3)
[5] = target: EPHA3 (human) (UniProt P29320)
Chain of EPHA3 (human) (P29320 whole entry, looked up): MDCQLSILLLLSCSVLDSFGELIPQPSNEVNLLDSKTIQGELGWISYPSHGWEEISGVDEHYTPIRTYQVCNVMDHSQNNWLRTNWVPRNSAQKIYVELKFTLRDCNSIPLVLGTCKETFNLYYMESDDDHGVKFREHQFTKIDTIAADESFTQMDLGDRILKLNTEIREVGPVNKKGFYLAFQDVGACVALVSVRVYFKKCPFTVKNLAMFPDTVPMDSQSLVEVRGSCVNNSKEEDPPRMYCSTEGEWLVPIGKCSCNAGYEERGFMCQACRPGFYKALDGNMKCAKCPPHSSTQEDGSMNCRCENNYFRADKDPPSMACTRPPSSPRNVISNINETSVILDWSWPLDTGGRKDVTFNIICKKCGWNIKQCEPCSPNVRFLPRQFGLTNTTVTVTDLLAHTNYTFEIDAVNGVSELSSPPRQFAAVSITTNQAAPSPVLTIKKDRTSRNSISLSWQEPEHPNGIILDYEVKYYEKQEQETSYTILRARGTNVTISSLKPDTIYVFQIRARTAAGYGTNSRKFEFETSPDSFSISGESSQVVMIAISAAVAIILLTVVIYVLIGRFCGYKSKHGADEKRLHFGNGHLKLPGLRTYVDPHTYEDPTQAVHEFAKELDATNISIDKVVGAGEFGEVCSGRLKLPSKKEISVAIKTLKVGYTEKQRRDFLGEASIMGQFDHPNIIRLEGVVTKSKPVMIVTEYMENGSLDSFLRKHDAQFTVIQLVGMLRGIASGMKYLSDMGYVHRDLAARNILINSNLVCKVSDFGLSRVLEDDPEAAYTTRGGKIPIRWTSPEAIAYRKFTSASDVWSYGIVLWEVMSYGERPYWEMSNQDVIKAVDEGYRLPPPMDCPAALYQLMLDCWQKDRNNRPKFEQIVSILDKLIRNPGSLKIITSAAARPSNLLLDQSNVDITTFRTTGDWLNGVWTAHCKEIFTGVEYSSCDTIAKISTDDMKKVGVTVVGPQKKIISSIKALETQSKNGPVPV

[6] = target: ROCK1 (human) (UniProt Q13464)
[7] = target: WNK3 (human) (UniProt Q9BYP7)
[8] = target: IRAK4 (human) (UniProt Q9NWZ3)
Chain of IRAK4 (human) (Q9NWZ3 whole entry, looked up): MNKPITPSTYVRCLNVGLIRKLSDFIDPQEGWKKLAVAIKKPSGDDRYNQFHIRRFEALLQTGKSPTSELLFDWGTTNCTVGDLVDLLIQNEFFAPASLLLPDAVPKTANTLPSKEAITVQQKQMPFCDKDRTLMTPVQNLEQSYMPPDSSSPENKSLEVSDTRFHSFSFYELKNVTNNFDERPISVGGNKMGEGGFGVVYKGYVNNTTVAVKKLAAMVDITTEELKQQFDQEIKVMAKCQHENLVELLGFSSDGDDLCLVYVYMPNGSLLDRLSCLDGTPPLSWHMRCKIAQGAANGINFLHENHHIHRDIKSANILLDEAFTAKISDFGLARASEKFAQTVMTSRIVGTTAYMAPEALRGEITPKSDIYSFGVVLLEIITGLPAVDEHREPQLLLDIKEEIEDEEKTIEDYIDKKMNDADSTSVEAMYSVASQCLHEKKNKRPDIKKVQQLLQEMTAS

[9] = target: HIPK3 (human) (UniProt Q9H422)
[10] = target: NEK6 (human) (UniProt Q9HC98)
[11] = target: MAPK10 (human) (UniProt P53779)
Chain of MAPK10 (human) (P53779 whole entry, looked up): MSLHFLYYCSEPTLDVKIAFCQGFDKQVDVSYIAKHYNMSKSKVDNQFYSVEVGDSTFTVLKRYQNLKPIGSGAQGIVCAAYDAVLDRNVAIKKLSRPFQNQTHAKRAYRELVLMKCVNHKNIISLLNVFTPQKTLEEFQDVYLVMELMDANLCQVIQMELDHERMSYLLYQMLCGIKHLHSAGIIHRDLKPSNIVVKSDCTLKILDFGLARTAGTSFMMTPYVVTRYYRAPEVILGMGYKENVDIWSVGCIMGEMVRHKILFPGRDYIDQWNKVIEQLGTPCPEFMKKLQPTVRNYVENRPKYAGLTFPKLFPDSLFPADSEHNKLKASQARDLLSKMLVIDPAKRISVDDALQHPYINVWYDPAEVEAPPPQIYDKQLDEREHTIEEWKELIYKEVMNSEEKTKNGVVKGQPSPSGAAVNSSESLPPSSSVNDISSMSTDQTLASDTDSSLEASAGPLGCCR

[12] = target: PRKD3 (human) (UniProt O94806)
[13] = target: CAMK1 (human) (UniProt Q14012)
[14] = target: EPHB4 (human) (UniProt P54760)
[15] = target: NEK9 (human) (UniProt Q8TD19)
[16] = target: HIPK2 (human) (UniProt Q9H2X6)
[17] = target: GRK6 (human) (UniProt P43250)
[18] = target: DMPK (human) (UniProt Q09013)
Chain of DMPK (human) (Q09013 whole entry, looked up): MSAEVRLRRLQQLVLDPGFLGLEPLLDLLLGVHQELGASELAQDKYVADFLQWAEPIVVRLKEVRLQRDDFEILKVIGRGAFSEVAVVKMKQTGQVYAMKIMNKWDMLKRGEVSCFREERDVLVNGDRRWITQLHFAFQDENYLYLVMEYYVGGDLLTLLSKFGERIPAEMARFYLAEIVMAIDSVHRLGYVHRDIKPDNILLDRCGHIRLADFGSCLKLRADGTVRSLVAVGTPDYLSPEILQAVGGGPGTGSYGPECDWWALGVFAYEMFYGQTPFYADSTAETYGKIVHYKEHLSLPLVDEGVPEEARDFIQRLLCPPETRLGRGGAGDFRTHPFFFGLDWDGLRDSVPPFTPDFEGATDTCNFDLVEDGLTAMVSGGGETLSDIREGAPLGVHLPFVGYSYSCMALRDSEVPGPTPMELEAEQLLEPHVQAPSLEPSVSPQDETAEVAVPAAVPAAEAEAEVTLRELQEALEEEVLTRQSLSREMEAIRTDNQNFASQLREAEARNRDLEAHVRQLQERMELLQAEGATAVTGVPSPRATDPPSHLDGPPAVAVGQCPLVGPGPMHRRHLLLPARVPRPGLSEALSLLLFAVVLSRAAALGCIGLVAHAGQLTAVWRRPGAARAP

[19] = target: PRKX (human) (UniProt P51817)
[20] = target: EPHB1 (human) (UniProt P54762)
[21] = target: SIK2 (human) (UniProt Q9H0K1)
[22] = target: MAPK9 (human) (UniProt P45984)
Chain of MAPK9 (human) (P45984 whole entry, looked up): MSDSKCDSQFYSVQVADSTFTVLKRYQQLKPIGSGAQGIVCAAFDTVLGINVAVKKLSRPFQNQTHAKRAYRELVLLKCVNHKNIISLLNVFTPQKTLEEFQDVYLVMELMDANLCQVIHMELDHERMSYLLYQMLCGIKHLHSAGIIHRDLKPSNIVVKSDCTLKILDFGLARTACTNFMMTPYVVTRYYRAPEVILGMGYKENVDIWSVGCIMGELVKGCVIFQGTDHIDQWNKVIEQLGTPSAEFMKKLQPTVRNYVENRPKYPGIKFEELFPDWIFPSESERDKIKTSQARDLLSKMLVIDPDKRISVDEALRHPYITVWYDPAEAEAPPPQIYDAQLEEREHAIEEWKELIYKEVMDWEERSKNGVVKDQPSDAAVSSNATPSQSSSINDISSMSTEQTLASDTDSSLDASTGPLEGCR

[23] = target: CDK6 CCND1 (human) (UniProt Q00534+P24385)
Chain of CDK6 CCND1 (human) (P24385 whole entry, looked up): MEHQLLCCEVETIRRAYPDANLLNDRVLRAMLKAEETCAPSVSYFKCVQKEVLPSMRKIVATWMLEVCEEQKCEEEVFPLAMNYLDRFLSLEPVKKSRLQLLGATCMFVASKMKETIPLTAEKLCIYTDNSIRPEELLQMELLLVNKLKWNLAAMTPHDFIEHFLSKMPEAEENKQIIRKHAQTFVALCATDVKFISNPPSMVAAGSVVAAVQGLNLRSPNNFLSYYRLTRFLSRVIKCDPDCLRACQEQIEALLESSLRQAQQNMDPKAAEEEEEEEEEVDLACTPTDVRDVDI
Chain of CDK6 CCND1 (human) (Q00534 whole entry, looked up): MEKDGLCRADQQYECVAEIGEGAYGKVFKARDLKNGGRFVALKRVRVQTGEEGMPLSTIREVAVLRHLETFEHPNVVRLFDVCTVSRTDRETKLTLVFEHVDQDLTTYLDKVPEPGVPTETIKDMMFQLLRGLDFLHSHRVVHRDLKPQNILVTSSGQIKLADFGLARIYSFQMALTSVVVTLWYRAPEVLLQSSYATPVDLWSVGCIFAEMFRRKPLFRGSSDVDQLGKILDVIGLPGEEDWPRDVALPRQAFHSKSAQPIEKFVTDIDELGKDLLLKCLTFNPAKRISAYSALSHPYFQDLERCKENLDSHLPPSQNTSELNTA

[24] = target: LYN (human) (UniProt P07948)
[25] = target: NLK (human) (UniProt Q9UBE8)
[26] = target: STK10 (human) (UniProt O94804)
[27] = target: DAPK2 (human) (UniProt Q9UIK4)
[28] = target: GRK7 (human) (UniProt Q8WTQ7)
[29] = target: ACVR1 (human) (UniProt Q04771)
[30] = target: CAMK2D (human) (UniProt Q13557)
[31] = target: CLK2 (human) (UniProt P49760)
[32] = target: EPHA1 (human) (UniProt P21709)
[33] = target: MARK3 (human) (UniProt P27448)
[34] = target: CAMK1G (human) (UniProt Q96NX5)
Chain of CAMK1G (human) (Q96NX5 whole entry, looked up): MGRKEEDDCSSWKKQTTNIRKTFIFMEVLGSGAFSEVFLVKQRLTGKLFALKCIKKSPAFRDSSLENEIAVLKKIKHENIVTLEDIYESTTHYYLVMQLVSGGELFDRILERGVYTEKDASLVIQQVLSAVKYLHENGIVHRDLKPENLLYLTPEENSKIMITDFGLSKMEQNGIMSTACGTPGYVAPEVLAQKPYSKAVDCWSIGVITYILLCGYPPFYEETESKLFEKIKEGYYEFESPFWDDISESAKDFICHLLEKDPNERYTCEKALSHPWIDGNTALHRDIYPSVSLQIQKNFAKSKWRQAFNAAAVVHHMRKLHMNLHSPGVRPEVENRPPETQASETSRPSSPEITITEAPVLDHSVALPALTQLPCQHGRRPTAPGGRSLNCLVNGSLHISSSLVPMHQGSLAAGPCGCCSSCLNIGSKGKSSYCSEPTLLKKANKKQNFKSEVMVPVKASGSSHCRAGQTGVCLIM

[35] = target: DAPK1 (human) (UniProt P53355)
[36] = target: MAP3K7 TAB1 (human) (UniProt O43318+Q15750)
[37] = target: EPHA2 (human) (UniProt P29317)
[38] = target: EPHA7 (human) (UniProt Q15375)
[39] = target: NEK7 (human) (UniProt Q8TDX7)
[40] = target: PRKCG (human) (UniProt P05129)
[41] = target: STK39 (human) (UniProt Q9UEW8)
[42] = target: CSNK1G3 (human) (UniProt Q9Y6M4)

Chain of TBK1 (human) (Q9UHD2 whole entry, looked up): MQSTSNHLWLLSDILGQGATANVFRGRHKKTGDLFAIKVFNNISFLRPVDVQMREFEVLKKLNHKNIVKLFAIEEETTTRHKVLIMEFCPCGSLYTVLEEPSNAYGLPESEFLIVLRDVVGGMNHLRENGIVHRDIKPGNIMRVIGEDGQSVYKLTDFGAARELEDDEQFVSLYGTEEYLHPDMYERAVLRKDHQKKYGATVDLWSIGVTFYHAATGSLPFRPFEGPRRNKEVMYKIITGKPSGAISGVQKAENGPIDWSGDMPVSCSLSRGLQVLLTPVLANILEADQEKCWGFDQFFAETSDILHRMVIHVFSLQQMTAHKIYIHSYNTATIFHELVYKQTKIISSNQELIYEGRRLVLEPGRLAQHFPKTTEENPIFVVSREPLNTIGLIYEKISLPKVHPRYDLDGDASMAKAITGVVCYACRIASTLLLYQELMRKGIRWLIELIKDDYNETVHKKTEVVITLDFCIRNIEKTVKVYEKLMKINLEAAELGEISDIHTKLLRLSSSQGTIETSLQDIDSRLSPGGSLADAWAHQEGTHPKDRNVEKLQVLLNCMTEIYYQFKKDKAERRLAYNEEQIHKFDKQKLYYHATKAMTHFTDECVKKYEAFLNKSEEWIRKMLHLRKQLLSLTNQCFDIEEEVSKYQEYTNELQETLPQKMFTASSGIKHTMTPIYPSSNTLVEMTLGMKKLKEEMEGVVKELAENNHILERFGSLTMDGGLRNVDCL

## COc1ccc(CNC(=O)Nc2ncc([N+](=O)[O-])s2)cc1
[1]
  residual activity: 104%
[2]
  residual activity: 104%
[3]
  residual activity: 97.7%
[4]
  residual activity: 102%
[5]
  residual activity: 111%
[6]
  residual activity: 102%
[7]
  residual activity: 101%
[8]
  residual activity: 101%
[9]
  residual activity: 91.9%
[10]
  residual activity: 100%
[11]
  residual activity: 96.1%
[12]
  residual activity: 93.4%
[13]
  residual activity: 101%
[14]
  residual activity: 100%
[15]
  residual activity: 89.4%
[16]
  residual activity: 103%
[17]
  residual activity: 99.6%
[18]
  residual activity: 101%
[19]
  residual activity: 72.1%
[20]
  residual activity: 102%
[21]
  residual activity: 89.4%
[22]
  residual activity: 135%
[23]
  residual activity: 98.6%
[24]
  residual activity: 91.4% and 97.7%
[25]
  residual activity: 102%
[26]
  residual activity: 94.3%
[27]
  residual activity: 93.3%
[28]
  residual activity: 103%
[29]
  residual activity: 99.5%
[30]
  residual activity: 98.3%
[31]
  residual activity: 97.4%
[32]
  residual activity: 107%
[33]
  residual activity: 105%
[34]
  residual activity: 99.6%
[35]
  residual activity: 105%
[36]
  residual activity: 99.3%
[37]
  residual activity: 100%
[38]
  residual activity: 96.6%
[39]
  residual activity: 99.4%
[40]
  residual activity: 99.8%
[41]
  residual activity: 96.4%
[42]
  residual activity: 90.4%

## COc1cc2ncnc(N3CCN(C(=O)Nc4ccc(Oc5ccccc5)cc4)CC3)c2cc1OC
[1]
  residual activity: 96.3%
[2]
  residual activity: 107%
[3]
  residual activity: 98.3%
[4]
  residual activity: 86.4%
[5]
  residual activity: 93.7%
[6]
  residual activity: 86%
[7]
  residual activity: 101%
[8]
  residual activity: 83.5%
[9]
  residual activity: 87.4%
[10]
  residual activity: 103%
[11]
  residual activity: 98.2%
[12]
  residual activity: 97.5%
[13]
  residual activity: 96.9%
[14]
  residual activity: 99.3%
[15]
  residual activity: 103%
[16]
  residual activity: 82.8%
[17]
  residual activity: 96.4%
[18]
  residual activity: 95.6%
[19]
  residual activity: 99.3%
[20]
  residual activity: 94.3%
[21]
  residual activity: 96%
[22]
  residual activity: 88.4%
[23]
  residual activity: 95.1%
[24]
  residual activity: 102% and 97.8%
[25]
  residual activity: 99.9%
[26]
  residual activity: 97.9%
[27]
  residual activity: 95%
[28]
  residual activity: 95.7%
[29]
  residual activity: 100%
[30]
  residual activity: 70.9%
[31]
  residual activity: 81.3%
[32]
  residual activity: 102%
[33]
  residual activity: 80.4%
[34]
  residual activity: 100%
[35]
  residual activity: 97.5%
[36]
  residual activity: 98.3%
[37]
  residual activity: 95.7%
[38]
  residual activity: 96.8%
[39]
  residual activity: 105%
[40]
  residual activity: 104%
[41]
  residual activity: 83.2%
[42]
  residual activity: 82.7%

## COc1cc2ncc(-c3ccccc3)nc2cc1OC
[1]
  residual activity: 87.2%
[2]
  residual activity: 114%
[3]
  residual activity: 105%
[4]
  residual activity: 102%
[5]
  residual activity: 86.8%
[6]
  residual activity: 95.5%
[7]
  residual activity: 97.5%
[8]
  residual activity: 90.6%
[9]
  residual activity: 97.7%
[10]
  residual activity: 93.8%
[11]
  residual activity: 90.3%
[12]
  residual activity: 91.1%
[13]
  residual activity: 90.4%
[14]
  residual activity: 86.4%
[15]
  residual activity: 93.5%
[16]
  residual activity: 78.7%
[17]
  residual activity: 92.8%
[18]
  residual activity: 103%
[19]
  residual activity: 97.4%
[20]
  residual activity: 92.8%
[21]
  residual activity: 93.1%
[22]
  residual activity: 93.1%
[23]
  residual activity: 94.1%
[24]
  residual activity: 90.4% and 96.9%
[25]
  residual activity: 89.3%
[26]
  residual activity: 89.6%
[27]
  residual activity: 97.3%
[28]
  residual activity: 105%
[29]
  residual activity: 99.3%
[30]
  residual activity: 87.5%
[31]
  residual activity: 87.4%
[32]
  residual activity: 95.8%
[33]
  residual activity: 98.2%
[34]
  residual activity: 95.1%
[35]
  residual activity: 99.7%
[36]
  residual activity: 92.8%
[37]
  residual activity: 102%
[38]
  residual activity: 94.7%
[39]
  residual activity: 102%
[40]
  residual activity: 101%
[41]
  residual activity: 88%
[42]
  residual activity: 104%
